Source: patent US10167283B2, “β-lactamase inhibitors and uses thereof” (priority 2015, dated 2019)
Where a name gives a salt, the structure may show the parent alone. Read-outs that look alike come from different tables or passages of the source.

What was measured:
[1] = tested on: Citrobacter freundii 7520cfr-167 (NDM, OXA-10, ESBLs); experiment: In vitro antibacterial activity on clinically separated CRE strain, agar dilution MIC; format: cell-based; settings: Table 3, 7520cfr-167 Citrobacter freundii
Procedure, shortened: (§1)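 Agar dilution per CLSI M100-S23 (2013) against ATCC standard or clinically isolated CRE strains; MIC recorded in μg/mL.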

[2] = tested on: Enterobacter cloacae 7494ecl-295 (NDM, ESBLs, AmpC); experiment: as above; format: cell-based; settings: Table 3, 7494ecl-295 Enterobacter cloacae
Procedure, shortened: as §1

[3] = tested on: Enterobacter cloacae 7495ecl-296 (IMP, ESBLs, AmpC); experiment: as above; format: cell-based; settings: Table 3, 7495ecl-296 Enterobacter cloacae
Procedure, shortened: as §1

[4] = tested on: Enterobacter cloacae 7498ecl-299 (ESBLs, AmpC); experiment: as above; format: cell-based; settings: Table 3, 7498ecl-299 Enterobacter cloacae
Procedure, shortened: as §1

[5] = tested on: Enterobacter cloacae 7511ecl-312 (NDM, ESBLs, AmpC); experiment: as above; format: cell-based; settings: Table 3, 7511ecl-312 Enterobacter cloacae
Procedure, shortened: as §1

[6] = tested on: Escherichia coil 7440eco-641 (ESBLs); experiment: as above; format: cell-based; settings: Table 3, 7440eco-641 Escherichia coil
Procedure, shortened: as §1

[7] = tested on: Escherichia coli 7438eco-639 (NDM, ESBLs); experiment: as above; format: cell-based; settings: Table 3, 7438eco-639 Escherichia coli
Procedure, shortened: as §1

[8] = tested on: Klebsiella pneumoniae 7463kpn-610 (ESBLs); experiment: as above; format: cell-based
Procedure, shortened: as §1

[9] = tested on: Klebsiella pneumoniae 7477kpn-624 (NDM, ESBLs); experiment: as above; format: cell-based; settings: Table 3, 7477kpn-624 Klebsiella pneumoniae
Procedure, shortened: as §1

[10] = tested on: Klebsiella pneumoniae 7484kpn-631 (IMP, ESBLs); experiment: as above; format: cell-based
Procedure, shortened: as §1

[11] = tested on: Klebsiella pneumoniae 7526kpn-640 (KPC, ESBLs); experiment: as above; format: cell-based; settings: Table 3, 7526kpn-640 Klebsiella pneumoniae
Procedure, shortened: as §1

[12] = target: T1, CTX-M-1 (Escherichia coli, UniProt P28585); experiment: β-lactamase inhibition, Nitrocefin hydrolysis; format: biochemical; settings: Experiment 2; enzyme 0.2 nM, Nitrocefin 0.1 mM
T1 construct: purchased
Procedure, shortened: (§2)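 Nitrocefin hydrolysis by each β-lactamase was followed as real-time absorbance, with the enzyme stock diluted 1000-fold in reaction solution. Inhibitors were tested at final concentrations from 100 μM down to 0.095 nM in four-fold steps. IC50 was calculated from the hydrolysis rates across inhibitor concentrations.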

[13] = target: T2, KPC-2 (Klebsiella pneumoniae, UniProt Q9F663); experiment: β-lactamase inhibition, Nitrocefin hydrolysis; format: biochemical; settings: Nitrocefin 0.1 mM
T2 construct: purchased
Procedure, shortened: as §2

[14] = target: T3, OXA-10 (Pseudomonas aeruginosa, UniProt P14489); experiment: β-lactamase inhibition, Nitrocefin hydrolysis; format: biochemical; settings: Experiment 3; enzyme 10 nM, Nitrocefin 0.1 mM; read-out: IC50 Type D OXA-10
T3 construct: purchased
Procedure, shortened: as §2

[15] = target: T4, TEM-1 (Escherichia coli, UniProt P62593); experiment: β-lactamase inhibition, Nitrocefin hydrolysis; format: biochemical; settings: Nitrocefin 0.1 mM
T4 construct: purchased
Procedure, shortened: as §2

[16] = cited from earlier work
[17] = Table 3, 7463kpn-610 Klebsiella pneumoniae
[18] = Table 3, 7484kpn-631 Klebsiella pneumoniae

T2 sequence (Q9F663 25-293, looked up, species assumed): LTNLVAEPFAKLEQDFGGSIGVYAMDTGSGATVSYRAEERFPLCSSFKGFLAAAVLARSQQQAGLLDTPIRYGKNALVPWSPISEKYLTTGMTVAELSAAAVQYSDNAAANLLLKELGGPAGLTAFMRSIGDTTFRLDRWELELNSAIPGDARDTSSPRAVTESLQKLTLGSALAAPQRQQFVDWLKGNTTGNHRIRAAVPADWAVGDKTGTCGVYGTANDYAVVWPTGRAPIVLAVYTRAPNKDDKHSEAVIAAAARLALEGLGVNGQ
T3 sequence (P14489 20-266, species assumed): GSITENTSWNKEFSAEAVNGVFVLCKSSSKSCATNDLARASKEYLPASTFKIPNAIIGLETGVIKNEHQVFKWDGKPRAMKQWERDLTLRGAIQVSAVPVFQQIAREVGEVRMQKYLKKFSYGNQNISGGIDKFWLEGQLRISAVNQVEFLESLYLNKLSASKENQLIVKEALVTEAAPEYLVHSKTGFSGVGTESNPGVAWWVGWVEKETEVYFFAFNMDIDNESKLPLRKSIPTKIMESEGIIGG
T4 sequence (P62593 24-286 limits assumed): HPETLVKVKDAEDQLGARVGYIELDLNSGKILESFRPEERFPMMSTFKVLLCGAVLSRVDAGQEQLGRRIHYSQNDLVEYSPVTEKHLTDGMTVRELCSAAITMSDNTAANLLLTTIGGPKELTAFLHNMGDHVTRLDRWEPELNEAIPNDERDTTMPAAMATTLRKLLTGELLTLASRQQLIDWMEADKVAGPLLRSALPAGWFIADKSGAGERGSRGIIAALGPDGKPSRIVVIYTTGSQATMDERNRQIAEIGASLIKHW
T1 sequence (P28585 29-291): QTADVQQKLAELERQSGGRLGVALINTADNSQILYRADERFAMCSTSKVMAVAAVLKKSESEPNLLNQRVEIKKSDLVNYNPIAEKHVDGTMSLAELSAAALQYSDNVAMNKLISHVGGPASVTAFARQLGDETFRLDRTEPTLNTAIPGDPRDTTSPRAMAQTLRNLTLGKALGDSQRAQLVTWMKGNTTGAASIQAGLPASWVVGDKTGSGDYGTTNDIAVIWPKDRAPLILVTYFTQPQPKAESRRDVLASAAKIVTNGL

Row | SMILES | MIC [1] | MIC [2] | MIC [3] | MIC [4] | MIC [5] | MIC [6] | MIC [7] | MIC [8, 17] | MIC [9] | MIC [10, 18] | MIC [11] | IC50 [12] | IC50 ([13]; Experiment 1, read-out: IC50 Type A KPC-2) | IC50 ([13]; Experiment 2, enzyme 1.28 nM, read-out: IC50 KPC-2) | IC50 [14] | IC50 ([15]; Experiment 1, enzyme 0.25 nM, read-out: IC50 ESBLs type TEM-1) | IC50 ([15]; Experiment 2, enzyme 1 nM, read-out: IC50 TEM-1) | MIC ([8]; first Table 4, 7463kpn-610 Klebsiella pneumoniae) | MIC ([10]; first Table 4, 7484kpn-631 Klebsiella pneumoniae) | T1/2 in clinic [16]
1 | O=C(NC1CC2(CNC2)C1)[C@@H]1CC[C@@H]2CN1C(=O)N2OS(=O)(=O)O [Compound 2, (2S,5R)-2-((2-azaspiro[3.3]heptan-6-yl)carbamoyl)-7-oxo-1,6-diazabicyclo[3.2.1]octan-6-yl hydrogen sulfate] | 2 µg/mL | 2 µg/mL | 2 µg/mL | 2 µg/mL | 2 µg/mL | 2 µg/mL | 2 µg/mL | 2 µg/mL | 2 µg/mL | 2 µg/mL | 4 µg/mL | 42.3 nM | 61.1 nM | 34.7 nM | 12200 nM | 28.5 nM | 15.2 nM |  |  | 
2 | NC(=O)[C@@H]1CC[C@@H]2CN1C(=O)N2OS(=O)(=O)O [AVI sodium salt, Avibactam, reference compound] | > 8 µg/mL | > 8 µg/mL | > 8 µg/mL | > 8 µg/mL | > 8 µg/mL | 8 µg/mL | 8 µg/mL | 8 µg/mL | > 8 µg/mL | > 8 µg/mL | > 8 µg/mL |  |  |  | 25900 nM |  |  | 32 µg/mL | 16 µg/mL | 
3 | O=C(NC1CCNCC1)[C@@H]1CC[C@@H]2CN1C(=O)N2OS(=O)(=O)O [MK-7655, reference compound] | > 8 µg/mL | > 8 µg/mL | > 8 µg/mL | > 8 µg/mL | > 8 µg/mL | > 8 µg/mL | > 8 µg/mL | > 8 µg/mL | > 8 µg/mL | > 8 µg/mL | > 8 µg/mL |  |  |  |  |  |  |  |  | 1.7 h
